What was measured:
HMLE-TWIST cells [1] = assay: E-cadherin (E-cad) level after chaetocin pulse; assay type: cell-based, human; conditions: 80 nM or 200 nM for 15 hours, then 1, 2, 4 days chaetocin-free
Experimental: Levels of an epithelial marker, E-cadherin (E-cad) were assayed at 15H, 1 D, 2D, and 4D after chaetocin treatment and the fraction of E-cad positive cells was quantified.
To molecularly test whether chaetocin treatment converts mesenchymal cells into epithelial cells, HMLE-TWIST cells were treated with a pulse of chaetocin for 15 hours (15H), washed and then incubated in chaetocin-free media for 1 day (1D), 2 days (2D), and 4 days (4D). Levels of the ubiquitous epithelial marker E-cadherin (E-cad) was assayed using Western blots throughout the experiment.

[2] = test system: 786-0, A549 and HMLE-TWIST cells; assay: Order of chaetocin and chemotherapy, caspase-3 cleavage; assay type: cell-based, human
Experimental: FIGS. 4D-4E show a set of bar plots and schematics of experiments in which chaetocin (80 nM) was administered for 15 hours either alone, two days before (FIG. 4E) or after a 2 day treatment with a chemotherapeutic drug (FIG. 4D; 300 nM cisplatin or 10 nM Doxorubicin) to 786-0 clear cell renal carcinoma cells, A549 lung cancer cells, and HMLE-TWIST (E-Twist) breast cancer cells. Cell death was assayed with cleaved caspase 3 fluorescent intensity. These experiments were designed to test the prediction of an epigenetic model for chaetocin-mediated reversal of chemotherapy resistance, namely that chaetocin must be added transiently for a short duration (15 hours) 2 days prior to chemotherapy to sensitize the cells to treatment. If the order was reversed (FIG. 4D), there should be no effect. The results of FIGS. 4A-4E indicate that chaetocin primes cancer cells for apoptotic death by chemotherapy through epigenetic reversal of chemotherapy resistance.
In a separate set of experiments, to test the generality of chaetocin in reversing the chemotherapy resistance of mesenchymal, TIC-rich cancers, well-characterized mesenchymal TIC-rich cell lines from ccRCC 786-0 and lung cancer cells (A549) were used along with HMLE-TWIST cells described above. […]

[3] = test system: patient-derived TMZ-resistant glioblastoma (GBM) cell line; assay: Spheroid cell confluence, co-treatment with TMZ; assay type: cell-based, human
Experimental: FIGS. 13A and 13B depict the response of a patient-derived TMZ-resistant glioblastoma (GBM) cell line to TMZ (Temozolomide). The cells were grown in suspension into spheroids after which they were treated with TMZ (100 uM), chaetocin (50 uM) or both (TMZ 100 uM, chaetocin 50 uM were administered at the same time). Cell confluence, an assay for spheroid size, was measured. The top graph depicts the response of the TMZ-resistant cell line to TMZ (100 uM) alone. Bottom graph depicts the response of the TMZ-resistant cell line to single agent and double agent treatments.
FIG. 14 depicts the response of a patient-derived TMZ-resistant glioblastoma (GBM) cell line to TMZ (Temozolomide). The cells were grown in suspension into spheroids after which they were treated with TMZ (50, 100, 200, 400 μM), chaetocin (50 uM) or both (TMZ at 50, 100, 200, or 400 μM together with chaetocin at 50 uM). […] Cell confluence, an assay for spheroid size, was measured.
A short exposure to chaetocin is sufficient to cause an epigenetic change, reprogramming mesenchymal, TIC-rich cancer cells into an epithelial fate while sensitizing them to chemotherapy. […] Cell confluence, an assay for spheroid size, was measured to determine if cell growth was inhibited (flat curve) or spheroid sizes were reduced (indicator of cell death and spheroid shrinkage). […]

HMLE-TWIST cells [4] = conditions: 0.3 μM, 15 hours, versus untreated
Experimental: To determine whether the transcriptional changes associated with chaetocin treatment support this apparent change in cell state (reversal of mesenchymal fate), RNA-seq experiments were performed on cells treated for 15 hours with 0.3 μM of chaetocin after which total RNA was extracted and subjected to deep sequencing.
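Throughout, for Log2foldChange ALDH1A1: transcript levels measured by RNA-seq of total RNA extracted from treated cells, given as log2 change relative to untreated cells.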
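Throughout, for Log2foldChange BIRC5 (survivin-1): transcript levels measured by RNA-seq of total RNA extracted from treated cells, given as log2 change relative to untreated cells.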
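Throughout, for Log2foldChange CD24: transcript levels measured by RNA-seq of total RNA extracted from treated cells, given as log2 change relative to untreated cells.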
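Throughout, for Log2foldChange CDH1 (E-cadherin): transcript levels measured by RNA-seq of total RNA extracted from treated cells, given as log2 change relative to untreated cells.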

Q: How did the “E-cadherin level (mesenchymal to epithelial conversion)” value (HMLE-TWIST cells [1]) turn out when `CN1C(=O)[C@@]23C[C@]4([C@]56C[C@@]78SS[C@](CO)(C(=O)N7[C@H]5Nc5ccccc56)N(C)C8=O)c5ccccc5N[C@@H]4N2C(=O)[C@@]1(CO)SS3` [chaetocin] was run?
A: The value was “stable epigenetic change in cell phenotype converting mesenchymal cancer cells into epithelial ones”.

Q: And the “sensitization to chemotherapy (caspase-3 cleavage)” value ([2]; 80 nM for 15 hours, 2 days before cisplatin or doxorubicin)?
A: Its value is “sensitizes them to chemotherapeutic killing”.

Q: And the “sensitization to chemotherapy (caspase-3 cleavage)” value ([2]; order reversed: chaetocin after chemotherapy)?
A: Its value is “did not produce similar chemotherapeutic killing of cells”.

Q: What about the “sensitization to TMZ (cell confluence / spheroid size)” value ([3]; chaetocin 50 uM with TMZ 100 uM added at the same time) of the same compound?
A: The value was “sensitization of the TMZ-resistant cell line to TMZ treatment”.

Q: And the “sensitization to TMZ (cell confluence / spheroid size)” value ([3]; chaetocin 50 uM with TMZ 50, 100, 200, 400 uM added at the same time)?
A: Its value is “sensitizes the cells to TMZ treatment versus single treatment with TMZ or chaetocin”.

Q: What about the “Log2foldChange ALDH1A1” value (HMLE-TWIST cells [4]) of the same compound?
A: The value was −2.01.

Q: What about the “Log2foldChange BIRC5 (survivin-1)” value (HMLE-TWIST cells [4]) of the same compound?
A: The value was 0.491.

Q: And the “Log2foldChange CD24” value (HMLE-TWIST cells [4])?
A: Its value is −0.912.

Q: And the “Log2foldChange CDH1 (E-cadherin)” value (HMLE-TWIST cells [4])?
A: Its value is 4.25.

Q: And the “Log2foldChange CLDN2” value (HMLE-TWIST cells [4])?
A: The value was 6.00.

Q: And the “Log2foldChange CLDN4” value (HMLE-TWIST cells [4])?
A: The value was 3.68.

Q: What about the “Log2foldChange CLDN6” value (HMLE-TWIST cells [4]) of the same compound?
A: The value was 7.30.

Q: What about the “Log2foldChange CLDN9” value (HMLE-TWIST cells [4]) of the same compound?
A: Its value is 4.59.

Q: And the “Log2foldChange CLDN16” value (HMLE-TWIST cells [4])?
A: Its value is 2.77.

Q: What about the “Log2foldChange CLDN23” value (HMLE-TWIST cells [4]) of the same compound?
A: Its value is 1.18.

Q: And the “Log2foldChange COL2A1” value (HMLE-TWIST cells [4])?
A: The value was 4.34.

Q: And the “Log2foldChange CRB1” value (HMLE-TWIST cells [4])?
A: The value was 9.40.

Q: And the “Log2foldChange CST6” value (HMLE-TWIST cells [4])?
A: Its value is 2.12.

Q: And the “Log2foldChange Errb2” value (HMLE-TWIST cells [4])?
A: The value was −0.829.

Q: And the “Log2foldChange GJA1” value (HMLE-TWIST cells [4])?
A: The value was −0.627.

Q: And the “Log2foldChange GLI-2” value (HMLE-TWIST cells [4])?
A: The value was −0.941.

Q: And the “Log2foldChange KRT7” value (HMLE-TWIST cells [4])?
A: The value was 1.59.

Q: And the “Log2foldChange KRT8” value (HMLE-TWIST cells [4])?
A: The value was 1.30.

Q: What about the “Log2foldChange KRT18” value (HMLE-TWIST cells [4]) of the same compound?
A: The value was 1.95.

Q: What about the “Log2foldChange KRT19” value (HMLE-TWIST cells [4]) of the same compound?
A: The value was 4.46.

Q: What about the “Log2foldChange KRT34” value (HMLE-TWIST cells [4]) of the same compound?
A: Its value is 5.49.

Q: And the “Log2foldChange KRT80” value (HMLE-TWIST cells [4])?
A: The value was 1.24.

Q: And the “Log2foldChange KRT81” value (HMLE-TWIST cells [4])?
A: Its value is 1.47.

Q: What about the “Log2foldChange KRT86” value (HMLE-TWIST cells [4]) of the same compound?
A: Its value is 3.10.

Q: What about the “Log2foldChange LAMB1” value (HMLE-TWIST cells [4]) of the same compound?
A: Its value is −1.05.

Q: What about the “Log2foldChange MMP14” value (HMLE-TWIST cells [4]) of the same compound?
A: The value was −1.14.

Q: What about the “Log2foldChange NRF-2” value (HMLE-TWIST cells [4]) of the same compound?
A: The value was −0.862.

Q: What about the “Log2foldChange Nanog” value (HMLE-TWIST cells [4]) of the same compound?
A: The value was −2.21.

Q: And the “Log2foldChange O ct4” value (HMLE-TWIST cells [4])?
A: The value was −1.76.

Q: And the “Log2foldChange PTEN” value (HMLE-TWIST cells [4])?
A: The value was −0.780.

Q: What about the “Log2foldChange SNAI2” value (HMLE-TWIST cells [4]) of the same compound?
A: The value was −0.623.

Q: And the “Log2foldChange TWIST1” value (HMLE-TWIST cells [4])?
A: Its value is −0.549.

Q: What about the “Log2foldChange WISP1” value (HMLE-TWIST cells [4]) of the same compound?
A: The value was −1.06.

Q: And the “Log2foldChange ZEB1” value (HMLE-TWIST cells [4])?
A: The value was −0.666.
